Experimental data taken from PubChem BioAssay AID651850 (Broad Institute, 2012).
Active and inactive are the calls of the source. The rule behind the calls is not given here.

Columns and labels:
[1] = test system: M. tuberculosis log-phase growth, CFU enumeration; assay: M. tuberculosis log-phase growth inhibition, dose response, dry powder samples (AID 651850)
[2] = as above; conditions: M. tuberculosis log-phase growth, CFU enumeration

Compound	IC90 [1]	outcome [2]
c1ccc(-c2nnc(SCCN3CCN(c4ccccc4)CC3)o2)cc1	62 µM	
Fc1ccc(-c2nnc(SCc3cn(Cc4ccccc4)nn3)o2)cc1	62 µM	
c1ccc(-n2cc(CSc3nnc(C4CCC4)o3)nn2)cc1	62 µM	
O=S(Cc1cn(Cc2ccccc2)nn1)c1nnc(-c2ccc(Cl)cc2)o1 (stereo not drawn)	62 µM	
O=S(Cc1ccccc1)c1nnc(-c2ccccc2)o1 (stereo not drawn)	< 31 µM	
Fc1ccc(-c2nnc(SCc3cn(-c4ccccc4)nn3)o2)cc1		inactive
c1ccc(CSc2nnc(-c3ccccc3)o2)cc1	62 µM	
c1ccc(Cn2cc(CSc3nnc(-c4ccccc4)o3)nn2)cc1		inactive
COc1cccc(-c2nnc(SCc3ccccn3)o2)c1	62 µM	
Fc1ccc(Cn2cc(CSc3nnc(C4CCCC4)o3)nn2)cc1		inactive
c1ccc(Cn2cc(CSc3nnc(C4CCCC4)o3)nn2)cc1	62 µM	
Clc1ccc(-c2nnc(SCc3cn(Cc4ccccc4)nn3)o2)cc1	125 µM	inactive
c1ccc(-c2nnc(SCc3ccccn3)o2)cc1	< 31 µM	
c1ccc(Cn2cc(CSc3nnc(C4CCC4)o3)nn2)cc1		inactive
c1ccc(CSc2nnc(C3CCCC3)o2)cc1	250 µM	
Clc1ccc(-c2nnc(SCc3cn(-c4ccccc4)nn3)o2)cc1		inactive
c1ccc(-c2nnc(SCc3cscn3)o2)cc1	62 µM	
Brc1ccc(-c2nnc(SCc3ccccn3)o2)cc1	62 µM	
Fc1ccc(Cn2cc(CSc3nnc(-c4ccc(F)cc4)o3)nn2)cc1		inactive
Fc1ccc(Cn2cc(CSc3nnc(-c4ccc(Cl)cc4)o3)nn2)cc1		inactive
Fc1ccc(-c2nnc(SCc3ccccn3)o2)cc1	16 µM	
Fc1cccc(-c2nnc(SCc3ccccn3)o2)c1	31 µM	
c1ccc(-n2cc(CSc3nnc(C4CCCC4)o3)nn2)cc1	62 µM	
Brc1cccc(-c2nnc(SCc3ccccn3)o2)c1	62 µM	
Fc1ccc(Cn2cc(CSc3nnc(C4CCC4)o3)nn2)cc1		inactive
CC(C)c1nnc(SCc2ccccc2)o1	125 µM	
COc1ccc(CSc2nnc(-c3ccc(Cl)cc3)o2)nc1	16 µM	
